Data as given in US9464092B2, “Transient protection of normal cells during chemotherapy” (G1 Therapeutics, Inc., priority 2013, dated 2016).
Read-outs that look alike come from different tables or passages of the source.

What was measured:
[1] = tested on: HSPCs (bone marrow); assay: HSPC proliferation in bone marrow by EdU incorporation after oral gavage; format: in vivo, mice
Experimental: Mice were then sacrificed at the indicated times (0, 12, 24, 36, or 48 hours following compound administration), and bone marrow was harvested (n=3 mice per time point), as previously described (Johnson et al. J. Clin. Invest. (2010) 120(7), 2528-2536). Four hours before the bone marrow was harvested, mice were treated with 100 μg of EdU by intraperitoneal injection (Invitrogen). Bone marrow mononuclear cells were harvested and immunophenotyped using previously described methods and percent EdU positive cells were then determined (Johnson et al. J. Clin. Invest. (2010) 120(7), 2528-2536). In brief, HSPCs were identified by expression of lineage markers (Lin-), Sca1 (S+), and c-Kit (K+).
Four hours before animals were sacrificed and the bone marrow was harvested, mice were treated with 100 μg of EdU by intraperitoneal injection. Three mice per group were sacrificed at 12 hours and the remaining three animals per group were sacrificed at 24 hours. Results are shown in FIG. 6A as the ratio of EdU positive cells for treated animals at 12 or 24 hour time points compared to control.
Further experiments were completed with Compound T examining dose response and longer periods of compound treatment. […] […].
Both compounds were administered at 150 mg/kg by oral gavage. One hour prior to harvesting bone marrow, EdU was IP injected to label cycling cells. Bone marrow was harvested at 12, 24, 36, and 48 hours after compound treatment and the percentage of EdU positive HSPC cells was determined at each time point.

[2] = molecular target: CDK6/CyclinD3 (Homo sapiens (Human), UniProt Q00534); assay: CDK6/CyclinD3 kinase assay (Nanosyn, Caliper microfluidic); format: biochemical; conditions: Table 3; read-out: CDK6/CycD3 IC50
[3] = Mouse pharmacokinetics (oral gavage / intravenous); format: in vivo, mice; conditions: mouse
[4] = molecular target: CDK2/CyclinE (Homo sapiens (Human), UniProt P24941); assay: CDK2/CyclinE kinase assay (Nanosyn, Caliper microfluidic); format: biochemical; conditions: for IC50: read-out: CDK2/CycE IC50
[5] = molecular target: CDK2/CyclinA (Homo sapiens (Human), UniProt P24941); assay: CDK2/CyclinA kinase assay (Nanosyn, Caliper microfluidic); format: biochemical; conditions: for IC50: read-out: CDK2/CycA IC50
Summary of the method: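 Each compound was run as a 12-point single-replicate titration, with staurosporine as reference, using microfluidic (Caliper) separation of phosphorylated peptide.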

[6] = molecular target: CDK4/CyclinD1 (Homo sapiens (Human), UniProt P11802); assay: CDK4/CyclinD1 kinase assay (Nanosyn, Caliper microfluidic); format: biochemical; conditions: read-out: CDK4/CycD1 IC50
[7] = tested on: RB-intact, Cdk4/6-dependent cell line (WM2664 or tHS68); assay: EdU proliferation, RB-intact Cdk4/6-dependent cell line; conditions: 24 hours
[8] = tested on: bone marrow progenitors; assay: Carboplatin-induced cytotoxicity in bone marrow (EdU); format: in vivo, FVB/n mice; conditions: 150 mg/kg oral gavage plus 90 mg/kg carboplatin i.p., 24 hours
Experimental: To assess the effect of transient CDK4/6 inhibition by Compound GG on carboplatin-induced cytotoxicity in the bone marrow, FVB/n mice (n=3 per group) were treated with vehicle control, 90 mg/kg carboplatin by intraperitoneal injection, or 150 mg/kg Compound GG by oral gavage plus 90 mg/kg carboplatin by intraperitoneal injection. 24 hours after treatment bone marrow was harvested and the percent of cycling bone marrow progenitors was measured by EdU incorporation as explained earlier. […] EdU incorporation in control animals was normalized to 100% and compared to EdU incorporation for bone marrow from carboplatin treated animals or carboplatin and Compound GG treated animals.

[9] = tested on: RB-negative SCLC cell lines (H69, H82, H209, H345, NCI417, or SHP-77); assay: EdU proliferation, RB-negative SCLC cell lines; conditions: 24 hours
[10] = tested on: H69 (human small cell lung cancer - Rb-negative) cells; assay: Cellular proliferation assay (CellTiter-Glo), H69; format: cell-based; conditions: NCI-H69, 96 h, four days
Experimental: (§1) Cellular proliferation assays were conducted using the following Rb-negative cancer cell lines: H69 (human small cell lung cancer—Rb-negative) cells or A2058 (human metastatic melanoma cells—Rb-negative). These cells were seeded in Costar (Tewksbury, Mass.) 3093 96 well tissue culture treated white walled/clear bottom plates. Cells were treated with the compounds of Table 1 as nine point dose response dilution series from 10 uM to 1 nM. Cells were exposed to compounds and then cell viability was determined after either four (H69) or six (A2058) days as indicated using the CellTiter-Glo® luminescent cell viability assay (CTG; Promega, Madison, Wis., United States of America) following the manufacturer's recommendations. Plates were read on BioTek (Winooski, Vt.) Syngergy2 multi-mode plate reader. The Relative Light Units (RLU) were plotted as a result of variable molar concentration and data was analyzed using Graphpad (LaJolla, Calif.) Prism 5 statistical software to determine the EC50 for each compound.

[11] = tested on: A2058 (human metastatic melanoma cells - Rb-negative); assay: Cellular proliferation assay (CellTiter-Glo), A2058; format: cell-based; conditions: A2058, 144 h, six days
Experimental: as §1

[12] = tested on: HS68 cells (human skin fibroblast cell line (Rb-positive)); assay: G1 arrest (cellular G1 and S-phase) assay; format: cell-based; conditions: Homo sapiens, Hs68, HS68 cells
Experimental: For determination of cellular fractions in various stages of the cell cycle following various treatments, HS68 cells (human skin fibroblast cell line (Rb-positive)) were stained with propidium iodide staining solution and run on Dako Cyan Flow Cytometer. The fraction of cells in G0-G1 DNA cell cycle versus the fraction in S-phase DNA cell cycle was determined using FlowJo 7.2 0.2 analysis.
The compounds listed in Table 1 were tested for their ability to arrest HS68 cells at the G1 phase of the cell cycle.

Chain of CDK4/CyclinD1 (P11802 whole entry, species assumed): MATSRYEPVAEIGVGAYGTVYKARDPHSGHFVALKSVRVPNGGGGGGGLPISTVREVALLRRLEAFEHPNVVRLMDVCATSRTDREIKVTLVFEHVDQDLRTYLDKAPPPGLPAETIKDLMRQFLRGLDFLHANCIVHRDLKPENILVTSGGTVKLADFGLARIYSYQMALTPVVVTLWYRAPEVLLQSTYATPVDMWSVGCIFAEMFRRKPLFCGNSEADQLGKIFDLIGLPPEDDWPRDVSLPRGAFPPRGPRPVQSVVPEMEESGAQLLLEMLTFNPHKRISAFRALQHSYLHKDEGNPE
Chain of CDK4/CyclinD1 (P24385 whole entry partner, species assumed): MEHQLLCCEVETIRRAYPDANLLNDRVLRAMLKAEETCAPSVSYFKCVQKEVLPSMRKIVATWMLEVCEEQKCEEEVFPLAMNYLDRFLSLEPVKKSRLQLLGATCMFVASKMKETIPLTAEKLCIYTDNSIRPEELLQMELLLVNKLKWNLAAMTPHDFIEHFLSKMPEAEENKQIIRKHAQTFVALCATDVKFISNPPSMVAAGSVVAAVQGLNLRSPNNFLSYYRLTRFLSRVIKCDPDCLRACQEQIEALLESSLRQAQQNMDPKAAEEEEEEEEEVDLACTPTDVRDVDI
Chain of CDK6/CyclinD3 (Q00534 whole entry, species assumed): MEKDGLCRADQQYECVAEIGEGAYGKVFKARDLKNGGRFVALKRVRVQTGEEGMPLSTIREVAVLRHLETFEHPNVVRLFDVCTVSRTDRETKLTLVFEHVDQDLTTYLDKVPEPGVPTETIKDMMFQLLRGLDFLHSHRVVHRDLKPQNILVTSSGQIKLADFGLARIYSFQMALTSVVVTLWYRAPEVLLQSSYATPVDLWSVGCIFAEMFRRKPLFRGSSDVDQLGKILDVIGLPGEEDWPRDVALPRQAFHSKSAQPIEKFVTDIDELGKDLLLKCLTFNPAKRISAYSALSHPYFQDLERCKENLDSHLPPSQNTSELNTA
Chain of CDK6/CyclinD3 (P30281 whole entry partner, species assumed): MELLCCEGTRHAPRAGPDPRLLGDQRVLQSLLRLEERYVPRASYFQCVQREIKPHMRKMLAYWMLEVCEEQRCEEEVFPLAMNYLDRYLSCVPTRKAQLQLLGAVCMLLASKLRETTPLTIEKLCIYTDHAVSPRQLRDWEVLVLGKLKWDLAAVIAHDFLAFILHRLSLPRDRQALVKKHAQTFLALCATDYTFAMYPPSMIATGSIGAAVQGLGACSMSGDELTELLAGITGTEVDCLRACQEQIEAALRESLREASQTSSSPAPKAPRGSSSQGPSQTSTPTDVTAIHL

Compound: CC(C)N1CCN(c2ccc(Nc3ncc4cc5n(c4n3)C3(CCCCC3)CNC5=O)nc2)CC1 [Compound GG, 2′-((5-(4-isopropylpiperazin-1-yl)pyridin-2-yl)amino)-7′,8′-dihydro-6′H-spiro[cyclohexane-1,9′-pyrazino[1′,2′:1,5]pyrrolo[2,3-d]pyrimidin]-6′-one]
- EdU incorporation into HSPCs at 12 and 24 hours compared to control ([1]; 150 mg/kg oral gavage): reduction in EdU incorporation at 12 hours which was starting to return to normal at 24 hours
- G1-arrest of bone marrow stem cells (HSPC) ([1]; oral gavage, mice): dose dependent, transient, and reversible G1-arrest
- IC50 [2]: 4.7 nM
- F [3]: 52%
- half-life ([3]; plasma, po, 30 mg/kg, 30 mg/kg oral gavage, read-out: t1/2 p.o. (converted)): 3.5 h
- half-life ([3]; plasma, po, 30 mg/kg, read-out: plasma half-life following oral administration): 3 to 5 h
- bioavailability ([3]; plasma, po, 30 mg/kg, read-out: oral bioavailability (F (%))): 52 to 80%
- AUC(0-inf) ([3]; plasma, iv, 10 mg/kg i.v.): 1.1 µM·h
- clearance ([3]; plasma, iv, 10 mg/kg i.v.): 82 mL/min/kg
- Vd ([3]; plasma, iv, 10 mg/kg i.v., read-out: Vss): 7.5 L/kg
- AUC ([3]; plasma, 30 mg/kg oral gavage): 1.9 µM·h
- Cmax ([3]; plasma, 30 mg/kg oral gavage): 1900 nM
- Tmax ([3]; plasma, 30 mg/kg oral gavage): 1 h
- Fold Selectivity CDK2/CDK4 ([4]; CDK2/CycE IC50 divided by CDK4/CycD1 IC50): 3377
- Fold Selectivity (CDK2/CycE/CDK4) ([4]; Table 2): 3377
- IC50 ([4]; Table 2): 3580 nM
- IC50 ([4]; Table 3): 3580 nM
- Fold Selectivity (CDK2/CycA/CDK4) ([5]; Table 2): 1425
- IC50 ([5]; Table 2): 1510 nM
- IC50 ([5]; Table 3): 1510 nM
- IC50 ([6]; Table 2): 1 nM
- IC50 ([6]; Table 3): 1.06 nM
- effect on proliferation (EdU, percent of cells in S-phase) [7]: inhibits the Rb-positive cell line (tHS68)
- protection of cycling bone marrow progenitors (EdU) [8]: significant protection of bone marrow progenitors
- effect on proliferation (EdU, percent of cells in S-phase) [9]: does not affect the growth of the Rb-negative cell lines

Compound: CN1CCN(C(=O)c2ccc(Nc3ncc4cc5n(c4n3)C3(CCCC3)CNC5=O)nc2)CC1 [BBB]
- EC50 [10]: > 3000 nM
- Fold Selectivity (CDK2/CycE/CDK4) ([4]; Table 2): 68
- IC50 ([4]; Table 2): 187 nM
- Fold Selectivity (CDK2/CycA/CDK4) ([5]; Table 2): 31
- IC50 ([5]; Table 2): 85 nM
- IC50 ([6]; Table 2): 2.8 nM
- EC50 [11]: > 3000 nM
- EC50 [12]: 230 nM
